Laboratory results reported in patent US20250204541A1, “GAS PHASE TREATMENT OF PRODUCE” (priority 2022, published 2025).

Tests used:
Assay type in all cases: in vivo
[1] = test system: Penicillium digitatum (Pd); assay: Antifungal activity of vapor against Penicillium digitatum in wounded, infected mandarins; conditions: for effect on Pd mold: airtight container, assessed after 6 days
Experimental: Example 4. The antifungal activity of a range of AITC vapor concentrations was tested against Pd in mandarins. All mandarins were wounded by puncturing with a screw and infected by dispensing 1000 Pd spores suspended in 10 μL of water in each wound. The fruit was then placed in an airtight container, a range of AITC volumes were disposed onto a Whatman filter paper disc, the disc was suspended in front of a battery-powered fan, and the container closed for 18 hours. The mandarins were then left at ambient temperature and high humidity for 6 days. The test groups were mandarins that were infected and untreated, and infected and treated with 62.5 μL, 125 μL, 250 μL, and 500 μL on the filter paper disc. […] FIG. 6 is a bar graph showing incidence (% infected) for the test groups.
Example 5. The antifungal activity of a range of AITC vapor exposure times was tested to determine the effects against Pd in mandarins. All samples were wounded by puncturing with a screw. Mandarins were infected by dispensing 1000 Pd spores suspended in 10 μL of water in the wound. The fruit was then placed in an airtight container, 125 μL of AITC was dispensed onto a Whatman filter paper disc, the disc suspended in front of a battery-powered fan, and the container closed for 15 minutes to 2 hours. The test groups were then left at ambient temperature, high humidity, and assessed for Pd mold after 6 days. The test groups consisted of mandarins that were: uninfected and untreated; infected and untreated; infected and treated with 0.5 g/L imazalil; infected, treated with 125 μL of AITC on the filter paper, and exposed to the vapor for 15 minutes, 30 minutes, 1 hour, and 2 hours.

[2] = test system: mold; assay: Mold growth on produce exposed to AITC in an airtight bin (general description); conditions: for effect on mold growth on the produce: AITC concentration of 1000 ppm, airtight bin
Experimental: The plurality of produce items is contacted with the antimicrobial agent for a length of time in a range of 1 minute to 100 hours (e.g., 10 minutes to 1 hour). The length of time is dependent on a variety of factors, such as type of produce, target pathogen, and the degree to which the enclosure is sealed. Examples include exposure times between 15 minutes and 96 hours for allyl isothiocyanate (AITC) in an airtight bin. […] Lower antimicrobial agent concentrations with longer exposure times or higher antimicrobial concentrations with shorter exposure times can also be used. For example, the plurality of produce items is contacted with the antimicrobial agent for a length of time in a range of 15 minute to 72 hours.
A concentration of the antimicrobial agent in the headspace of the enclosure is typically in a range of about 20 parts per million by volume (ppmv) to about 5000 ppmv (e.g., about 550 ppmv to about 4800 ppmv, or about 25 ppmv to about 1250 ppmv). Depending on type of produce and exposure time in the enclosure, antimicrobial agent concentrations greater than about 2200 ppmv can sometimes damage the produce. […] In some embodiments, the antimicrobial agent is provided in a concentration to the enclosure in a headspace at least about 1200 ppmv, at least about 1250 ppmv, or about 1250 ppmv to about 5000 ppmv, or about 1250 ppmv to about 4900 ppmv.

[3] = test system: Penicillium digitatum (Pd); assay: Antifungal activity of vapor against Penicillium digitatum in wounded, infected mandarins; conditions: for effect on Pd infection: airtight container with fan, 18 hours, then 6 days; for infected: 125 μL, 30 minutes
[4] = test system: Botrytis cinerea (Bc); assay: Antifungal activity of AITC vapor against Botrytis cinerea in strawberries; conditions: Example 17; suspended strawberries; coating agent 50 g/L dip; AITC 125 μL 30 minutes; by day 5
[5] = mandarins, 72 hours vapor of 3 mL in a Petri dish

C=CCN=C=S [AITC, allyl isothiocyanate]
inhibition of fungal growth ([1]; mandarins infected with Pd, 72 hours vapor of 3 mL in a Petri dish): approximately 100%
effect on Pd mold ([1]; mandarins, 125 μL on filter paper (730 ppm), 30 min exposure): greatly reduced severity of Pd mold infection
effect on Pd infection ([1]; mandarins, 125 μL on filter paper disc, airtight container with fan, 18 hours, then 6 days): substantially prevented the growth mold
effect on Pd mold ([1]; mandarins, 125 μL on filter paper, 15 minute exposure): little effect on Pd mold
effect on Pd mold ([1]; mandarins, 125 μL on filter paper, 1 hour exposure): greatly reduced severity and incidence of Pd mold
effect on Pd infection ([1]; mandarins, 250 μL on filter paper disc, airtight container with fan, 18 hours, then 6 days): substantially prevented the growth mold
effect on Pd infection / mold growth [1, 5]: substantially prevented
effect on Pd infection ([1]; mandarins, vapor of 500 μL in a Petri dish for 72 hours): substantially prevented Pd infections
effect on mold growth on the produce ([2]; exposure time of 15 minutes): slowed mold growth on the produce
effect on mold growth on the produce ([2]; exposure time of 30 min or longer): showed good efficacy
effect on mold growth ([2]; AITC concentrations in a range of 550 ppmv to 4800 ppmv): some inhibitory effect on mold growth
effect on mold growth ([2]; AITC concentrations over 1000 ppmv): tended to be completely inhibitory
effect on Pd infection at 50% of the minimum inhibitory concentration ([3]; 62.5 μL AITC vapor for 30 minutes, assessed after 6 days): tends to reduce the severity of infection, but not eliminate the incidence of infection
effect on Pd infection ([3]; 62.5 μL on filter paper disc): reduced the severity of infection relative to the untreated group
effect on Pd mold ([3]; 125 μL on filter paper, airtight container, 2 hour exposure, assessed after 6 days): substantially eliminated the mold
effect on Pd infection ([3]; 500 μL on filter paper disc): substantially prevented the growth mold
infected ([3]; treated 24 hours after infection, assessed after 6 days): 8.3%
infected ([3]; treated 48 hours after infection, assessed after 6 days): 25%
infected ([3]; treated 72 hours after infection, assessed after 6 days): 16.7%
infected ([3]; treated 96 hours after infection, assessed after 6 days): 81.6%
infected ([3]; treated immediately after infection (0 hours), assessed after 6 days): 58.3%
reduction in incidence of mold versus the untreated test group [4]: over 80%

C=CCSSCC=C [DADS, diallyl disulfide]
effect on Pd infection / mold growth [1, 5]: substantially prevents Pd mold growth
reduction of the incidence of Pd mold compared to the untreated samples ([1]; mandarins, exposed for 72 hours to the vapor of 3 mL in a Petri dish): 85%
